Assay results from patent publication US11633400B2.

Assays:
[1] = Hygroscopicity by dynamic water vapor sorption analysis (DVS)
Procedure: DVS measurements were conducted as follows: The sample was placed on an aluminum holder on top of a microbalance and allowed to equilibrate at 50% RH before starting the pre-defined humidity program:
(1) two hours kept at 50% constant relative humidity (RH) then
(2) raised RH to 95% at a rate of 5% per hour
(3) maintained RH at 95% for five hours
(4) reduced to 0% RH at a rate of 5% per hour
(5) maintained RH at 0% for five hours
(6) raised RH to 95% at a rate of 5% per hour
(7) maintained RH at 95% for five hours
(8) reduced to 0% RH at a rate of 5% per hour
(9) maintained RH at 0% for five hours
(10) raised to 50% RH at a rate of 5% per hour
(11) maintained RH at 50% for about one hour
(§1) This sample was examined by dynamic water vapor sorption analysis (DVS) within the relative humidity range from 0 to 95% r.h. DVS measurements were conducted as described above.

Water content by TG-FTIR = details: sample according to Example 1; relative humidity of about 35%
Procedure: Thermogravimetric measurements were carried out with a Netzsch Thermo-Microbalance TG 209 coupled to a Bruker FTIR Spectrometer Vector 22 (sample pans with a pinhole, N2 atmosphere, heating rate 10 K/min).
This value was determined by TG-FTIR at a relative humidity of about 35%. This sample was examined by dynamic water vapor sorption analysis (DVS) within the relative humidity range from 0 to 95% r.h. DVS measurements were conducted as described above.
as §1

[2] = cited from earlier work; for aqueous solubility: at room temperature, known values

CN1c2c(nc(N)[nH]c2=O)NC[C@@H]1CNc1ccc(C(=O)N[C@@H](CCC(=O)O)C(=O)O)cc1.OCCN1CCOCC1
change of water content ([1]; DVS, range from 20% to 80% relative humidity): about 2%
water adsorption compared with the crystalline polymorphic forms of the calcium salt ([1]; under changing relative humidity): significantly lower
water content (TG-FTIR) (Water content by TG-FTIR): about 8.9 % w/w

CN1c2c([nH]c(N)nc2=O)NC[C@@H]1CNc1ccc(C(=O)N[C@@H](CCC(=O)[O-])C(=O)[O-])cc1.[Ca+2] [calcium salt (Form III)]
aqueous solubility [2]: about 2.5 mg/ml

CN1c2c([nH]c(N)nc2=O)NC[C@@H]1CNc1ccc(C(=O)N[C@@H](CCC(=O)O)C(=O)O)cc1
solubility in water (in words) ([2]; water): poorly soluble

CN1c2c([nH]c(N)nc2=O)NC[C@@H]1CNc1ccc(C(=O)N[C@@H](CCC(=O)[O-])C(=O)[O-])cc1.[Ca+2] [Form I]
aqueous solubility [2]: about 10 mg/ml
